Data from patent publication EP1611889A1, “ANTIBACTERIAL AGENT AND ANTICANCER AGENT” (MITSUBISHI CORPORATION, priority 2003, dated 2004).

Assay: Solubility in DMSO
Format: physicochemical

C60-bis(N,N-dimethyl-2-hexylpyyrolidinium iodido) [derivative 4]
dissolved in DMSO at a concentration: ≥ 5 mM
